Assay results: US6121315A, “Oral compositions containing a zinc compound” (priority 1999, dated 2000)
Where “and” joins values, the source holds several entries; their conditions need not be identical. Equal entries are not always repeated. Where two headings read alike, the source gives them in different places.

Tests used:
[1] = test system: Fusobacterium nucleatum (ATCC 10953); format: cell-based
Description: The objective of this study was to evaluate the use of pure cultures or oral malodor-causing bacteria as the source of malodor instead of human subjects. Cultures of Fusobacterium nucleatum, Veillonella parvula and Prevotella sp. are well recognized producers of VSC's due to their ability to digest amino acids including cysteine and methionine. The most widely investigated of these is F. nucleatum. Therefore, this organism was selected for this in vitro test. Evaluating a finished oral care composition spiked with Fusobacterium was considered, however, the detector in the Halimeter was adversely affected by alcohols. […] Therefore, the following methodology was applied to screen the effectiveness of various zinc salt solutions in reducing VSC's: Fusobacterium nucleatum (ATCC #10953) was transferred twice from frozen stock cultures and maintained by daily transfers in […]' broth (Difco or BBL). […] The tube is a scaled down version of a Kontes #181000 adapter inlet with hose connectors which is coupled to a 18×100 mm glass tube fitted with a tapered ground fitting. After one minute the Halimeter was connected to a port on the reaction tube and allowed to sample the VSC's in the solution via the vacuum pump. The peak reading recorded by the Halimeter was taken as the VSC measurement. The level of inoculum selected was determined by ppb of VSC's generated in inoculated water alone. […] Three different zinc salt solutions, ZnCl2, ZnSO4, and ZnO, were evaluated. […] Water was used as the control. (Table 1) The heading D% refers to the difference between the measurement of VSCs in ppb using a pure water solution and the measurement of VSCs in ppb using varying concentrations of zinc salts. Each experiment was run in triplicate.

[2] = Overnight malodor study: morning mouth air VSC (H2 S, CH3 SH) by gas chromatography; format: in vivo, human
Description: Subjects participating in this study maintained their normal nightly oral hygiene procedure for the duration of the study. In addition, all participants were asked to refrain from eating odoriferous foods at least 24 hours prior to their appointment for measurement of VSC's.
Subjects reported directly to the laboratory each morning for measurement of mouth air VSC levels. This measurement was the baseline (pretreatment) level of VSC. Selection for the study was based on morning levels of H2 S above 30 parts per billion (ppb) and CH3 SH above 20 ppb. Subjects fulfilling this criteria received a treatment to use that evening. Immediately before retiring to bed, the subjects rinsed vigorously for 30 seconds using the assigned treatment. The following morning the subject returned to the lab for analysis of mouth air VSC. This measurement was the post-treatment value. These treatments were assigned in a random, crossover design experiment.
Levels of VSC in subject's mouth air were determined using a gas chromatography system equipped with a flame photometric detector. […] Analysis of variance tested for significant treatment differences.
Differences between treatment were tested by analysis of variance using post minus pretreatment levels of mouth air VSCs.

[3] = Adherence of zinc to simulated dental plaque on steel wires, fluorimetric with 8-hydroxyquinoline
Description: To determine how readily zinc adheres to dental plaque, the adherence of zinc to simulated plaque grown on steel wires was fluorimetrically measured. Increasing concentrations of zinc solutions were used in the test oral compositions.
After the simulated plaque is developed on the wires, it is then immersed in the oral composition to be tested, which is followed by a rinse. Thereafter, the plaque coated wires are immersed in a 0.01% solution of 8-hydroxyquinoline prepared by dissolving the 8-hydroxyquinoline in 100% ethanol. Twenty (20) ml of this solution were then brought q.s. up to the correct concentration.

[4] = cited from earlier work
[5] = 1 hour after using 31 or 18 mM; cited from earlier work
[6] = 0.25% zinc chloride, significant reduction from Baseline
[7] = individual subjects 1-13 in table order, morning after 20 ml of 0.25% zinc chloride, 30 second rinse at bedtime
[8] = individual subjects 1-13 in table order, pretreatment, zinc chloride arm
[9] = mean of 13 subjects, pretreatment, zinc chloride arm

Row | Structure (SMILES) | % D, difference from water in VSC ([1]; 0.01%, first run) | % D, difference from water in VSC ([1]; 0.01%, second run) | % D, difference from water in VSC ([1]; 0.01%, third run) | % D, difference from water in VSC ([1]; 0.05%, first run) | % D, difference from water in VSC ([1]; 0.05%, second run) | % D, difference from water in VSC ([1]; 0.05%, third run) | % D, difference from water in VSC ([1]; 0.1%, first run) | % D, difference from water in VSC ([1]; 0.1%, second run) | % D, difference from water in VSC ([1]; 0.1%, third run) | % D, difference from water in VSC ([1]; 0.2%, first run) | % D, difference from water in VSC ([1]; 0.2%, second run) | % D, difference from water in VSC ([1]; 0.2%, third run) | % D, difference from water in VSC ([1]; 0.4%, first run) | % D, difference from water in VSC ([1]; 0.4%, second run) | % D, difference from water in VSC ([1]; 0.4%, third run) | other results
1 | O=S(=O)([O-])[O-].[Zn+2] [ZnSO4, zinc sulfate] | -52.0% | -67.7% | -38.7% | -53.6% | -51.3% | -42.5% | -54.7% | -58.6% | -42.4% | -58.1% | -67.4% | -48.1% | -65.0% | -58.2% | -51.0% | –
2 | [Cl-].[Cl-].[Zn+2] [ZnCl2, zinc chloride] | -47.4% | -58.3% | -37.0% | -53.0% | -57.5% | -40.0% | -53.8% | -54.6% | -43.1% | -59.8% | -60.4% | -47.9% | -63.2% | -58.9% | -47.4% | CH3 SH, Probability (p), t-test for differences from baseline [2, 6]: .0209; H2 S, Probability (p), t-test for differences from baseline [2, 6]: .0074; CH3 SH levels, Post [2, 7]: 50 ppb and 20 ppb and 63 ppb and 176 ppb and 41 ppb and 35 ppb and 29 ppb and 25 ppb and 133 ppb and 47 ppb and 16 ppb; H2 S levels, Post [2, 7]: 41 ppb and 22 ppb and 162 ppb and 268 ppb and 129 ppb and 106 ppb and 35 ppb and 318 ppb and 32 ppb and 94 ppb and 17 ppb and 97 ppb; CH3 SH levels, Baseline [2, 8]: 173 ppb and 46 ppb and 358 ppb and 115 ppb and 249 ppb and 61 ppb and 51 ppb and 99 ppb and 170 ppb and 217 ppb and 44 ppb and 59 ppb and 34 ppb; H2 S levels, Baseline [2, 8]: 344 ppb and 53 ppb and 522 ppb and 204 ppb and 644 ppb and 310 ppb and 91 ppb and 509 ppb and 191 ppb and 175 ppb and 81 ppb and 110 ppb and 170 ppb; CH3 SH levels, Post, mean (x) ([2]; mean of 13 subjects, morning after 20 ml of 0.25% zinc chloride, baseline mean 129, water 76 to 65): 57 ppb; H2 S levels, Post, mean (x) ([2]; mean of 13 subjects, morning after 20 ml of 0.25% zinc chloride, baseline mean 262, water 164 to 113): 114 ppb; CH3 SH levels, Baseline, mean (x) [2, 9]: 129 ppb; H2 S levels, Baseline, mean (x) [2, 9]: 262 ppb; development of VSC's overnight in vivo ([2]; summary statement in words): prevent or inhibit; amount of fluorescence in dental plaque vs concentration ([3]; ZnCl2 0.001%, 0.010%, 0.025%, 0.050% and 0.100%): the amount of fluorescence increased with increasing zinc concentration; lowest concentration at which fluorescence from zinc was detectable in dental plaque ([3]; base oral composition identical to Example 2, excitation 360 nm, emission 530 nm or 590 nm): 0.001 % (w/v)
3 | CC1CCC(C(C)C)C(O)C1 (stereo not drawn) [Menthol, hexahydrothymol, reference compound] | – | – | – | – | – | – | – | – | – | – | – | – | – | – | – | solubility in alcohol [4]: highly soluble
4 | [O]=[Zn] [ZnO, zinc oxide] | -53.7% | -54.9% | -40.0% | -48.7% | -51.8% | -37.5% | -58.2% | -57.6% | -42.1% | -59.4% | -63.5% | -47.9% | -60.2% | -70.5% | -54.1% | –
5 | O=S(=O)([O-])c1ccc(O)cc1.O=S(=O)([O-])c1ccc(O)cc1.[Zn+2] [zinc phenolsuphonate] | – | – | – | – | – | – | – | – | – | – | – | – | – | – | – | oral zinc concentration [5]: markedly increased
6 | [Cl-].[Cl-].[Zn+2] [zinc] | – | – | – | – | – | – | – | – | – | – | – | – | – | – | – | levels of CH3 SH and H2 S compared to baseline levels ([2]; overnight, morning breath, result in words): significantly reduced
7 | CC(C)[C@@H]1CC[C@@H](C)C[C@H]1OC(=O)CCC(=O)O [monomenthyl succinate] | – | – | – | – | – | – | – | – | – | – | – | – | – | – | – | solubility in water [4]: sparingly soluble; solubility in oil ([4]; relative to water): more soluble
